Source: article PMC11994961, “In Vivo pharmacokinetic interactions of ribociclib with rivaroxaban and apixaban in rats: implications for increased drug exposure and dose adjustments” (Frontiers in Pharmacology, 2025)
Like-named read-outs stand apart in the source and are kept apart here.

Legend:
[1] = design: method as in Wang et al., 2023; settings: rats, with almonertinib; ref Wang et al., 2023; cited from earlier work
[2] = design: method as in Hindley et al., 2023; settings: ref Hindley et al., 2023; cited from earlier work
[3] = Pharmacokinetic study of apixaban in rats, alone and after ribociclib (UPLC-MS/MS plasma levels); assay type: in vivo, Sprague-Dawley rats; settings: for AUC(0-inf) / Cmax / Tmax / half-life / CL/F / MRT inf / MRT last / Vd/F: po, 0.5 mg/kg; for CL/F: read-out: CLz/F (converted); for MRT inf: read-out: MRT0- ∞; for MRT last: read-out: MRT0-t; for Vd/F: read-out: Vz/F
Procedure: Experimental animals were randomly divided into nine groups (n = 6, Table 1). Ribociclib was suspended in methylcellulose (MC), rivaroxaban was prepared in hydroxypropyl methylcellulose (HPMC), and apixaban was suspended in 5% DMSO in water. To achieve steady-state blood concentrations, a drug typically requires five to seven half-lives. Based on this principle, ribociclib was administered orally for eight consecutive days, while rivaroxaban and apixaban were administered orally for five consecutive days to ensure steady-state concentrations were reached before further analysis.
Approximately 0.1 mL of blood was collected into heparinized tubes via the orbitalat specified time points before and after the final drug administration. For apixaban, blood samples were collected at 0, 0.083, 0.167, 0.25, 0.333, 0.5, 0.75, 1, 3, 5, 7, 10, and 12 h. For rivaroxaban, sampling was conducted at 0, 0.167, 0.333, 0.5, 0.75, 1.5, 2, 3, 4, 5, 6, 8, 10, 12, and 24 h. For ribociclib, samples were taken at 0, 0.5, 1, 2, 4, 5, 6, 8, 10, 12, 24, and 48 h. Blood samples were centrifuged at 3,500 rpm for 10 min, and the supernatant was collected and stored at −80°C until processing for UPLC-MS/MS.
Apixaban and rivaroxaban concentrations in plasma samples were determined using our previously established UPLC-MS/MS method ([Wang et al., 2023]). Ribociclib concentrations were quantified using an LC-30A UPLC system (Shimadzu, Kyoto, Japan) coupled with a Sciex Triple Quad 5500 tandem quadrupole mass spectrometer (AB Sciex, Framingham, MA, United States) equipped with an electrospray ionization interface. Chromatographic separation was performed using a Welch Boltimate column (2.1 mm × 100 mm, 2.7 μm) maintained at 40°C. The mobile phase was composed of water containing 0.1% formic acid (phase A) and acetonitrile (phase B). The flow rate was held constant at 0.3 mL/min. The gradient elution protocol was as follows: 0–2.5 min, 60% B; 2.5–3.5 min, 60%–90% B; 3.5–5.5 min, 90% B; 5.5–5.6 min, 90%–60% B; 5.6–6.6 min, 60% B. The injection volume was 1 μL.
Pharmacokinetic parameters were calculated based on a non-compartmental model using DAS 2.1.1 Software (Mathematical Pharmacology Professional Committee of China, Shanghai, China). The area under the concentration–time curve (AUC), maximum plasma concentration (Cmax), time to maximum plasma concentration (Tmax), the time required to eliminate half of the plasma drug concentration (t1/2), clearance of drug plasma volume per unit time (CLz/F), apparent volume distribution (Vz/F), mean residence time (MRT) and the absorption rate constant (Ka) are all expressed as mean ± standard deviation (SD). SPSS 25.0 statistical software (SPSS Inc., Chicago, IL, United States) was applied to statistically analyze the mainpharmacokinetic parameters. Shapiro-Wilk test was used to assess whether the data were normally distributed, t test was used for parameters conforming to the normal distribution, and Mann-Whitney U test was used for parameters not conforming to the normal distribution. Statistical comparisons were conducted using a analysis of variance, t-test or nonparametric rank-sum test depending on the data type. A P-value <0.05 was deemed statistically significant.

[4] = API 0.5 mg/kg after multiple doses of RIBO vs API alone
[5] = Sprague-Dawley, rat, plasma, API 0.5 mg/kg after RIBO 60 mg/kg for 8 days
[6] = Sprague-Dawley, rat, plasma, oral API 0.5 mg/kg alone

## COc1ccc(-n2nc(C(N)=O)c3c2C(=O)N(c2ccc(N4CCCCC4=O)cc2)CC3)cc1 [API, apixaban]
[1]
  increase in AUC: over three fold increases
  increase in Cmax: over three fold increases
[2]
  plasma protein binding: approximately 87%
[3]; API 0.5 mg/kg after RIBO 60 mg/kg for 8 days
  AUC(0-t): 608.21 ± 196.17 ng·h/mL
[3]; [4]
  CLz/F was decreased by: 32.23%
  difference in AUC0-t: not statistically significant
  difference in Cmax: not statistically significant
  difference in Tmax: not statistically significant
  increase of MRT0- ∞: 61.41%
  increase of MRT0-t: 14.45%
  increase of t1/2z: 115.90%
[3]; Sprague-Dawley, rat, plasma, oral API 0.5 mg/kg alone, read-out: AUC0-t
  AUC(0-t): 409 ± 55.3 ng·h/mL
[3]; [5]
  AUC(0-inf): 675 ± 221 ng·h/mL
  Cmax: 156 ± 42.4 ng/mL
  Tmax: 0.75 ± 0.16 h
  half-life: 5.16 ± 3.22 h
  CL/F: 13.7 mL/min/kg
  MRT inf: 4.81 ± 2.07 h
  MRT last: 3.01 ± 0.3 h
  Vd/F: 5.57 ± 2.63 L/kg
[3]; [6]
  AUC(0-inf): 420 ± 54.2 ng·h/mL
  Cmax: 140 ± 29.4 ng/mL
  Tmax: 0.88 ± 0.14 h
  half-life: 2.39 ± 0.53 h
  CL/F: 20.2 mL/min/kg
  MRT inf: 2.98 ± 0.32 h
  MRT last: 2.63 ± 0.1 h
  Vd/F: 4.16 ± 1.07 L/kg
